Measured values as given in patent US9149038B2, “4-amino-6-(heterocyclic)picolinates and 6-amino-2-(heterocyclic)pyrimidine-4-carboxylates and their use as herbicides” (Dow AgroSciences LLC, priority 2013, dated 2015).
Like-named read-outs stand apart in the source and are kept apart here.

System: Direct Seeded Rice and weed species
Assay: Postemergence herbicidal activity in direct seeded rice, visual rating after 20-22 days and probit GR20/GR50/GR80/GR90 (Table 14)
Assay type: in vivo
Settings: for pest or weed control at 17.5 g/ha / pest or weed control at 35 g/ha / pest or weed control at 70 g/ha: post-emergence, 504 h, postemergence; for pest or weed control at 17.5 g/ha: 17.5 g ai/ha; for pest or weed control at 35 g/ha: 35 g ai/ha; for pest or weed control at 70 g/ha: 70 g ai/ha
Procedure, shortened: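 Rice and weeds grown in loam–sand soil (pH about 8.1) in greenhouse to 2nd–3rd true leaf, then sprayed postemergence at 187 L/ha in acetone/DMSO with 1.25% (v/v) Agri-dex crop oil. Injury rated visually 0–100 after 20-22 days versus untreated plants; GR20, GR50, GR80, GR90 obtained by probit analysis across dose rates.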

[1] = BRAPP (broadleaf signalgrass, Brachiaria platyphylla), read-out: Visual Growth Reduction (%) 21 Days After Application BRAPP
[2] = CYPDI (small-flower flatsedge, Cyperus difformis), read-out: Visual Growth Reduction (%) 21 Days After Application CYPDI
[3] = CYPES (yellow nutsedge, Cyperus esculentus), read-out: Visual Growth Reduction (%) 21 Days After Application CYPES
[4] = CYPIR (rice flatsedge, Cyperus iria), read-out: Visual Growth Reduction (%) 21 Days After Application CYPIR
[5] = DIGSA (large crabgrass, Digitaria sanguinalis), read-out: Visual Growth Reduction (%) 21 Days After Application DIGSA
[6] = ECHCG (barnyardgrass, Echinochloa crus-galli), read-out: Visual Growth Reduction (%) 21 Days After Application ECHCG
[7] = ECHCO (junglerice, Echinochloa colonum), read-out: Visual Growth Reduction (%) 21 Days After Application ECHCO
[8] = LEFCH (Chinese sprangletop, Leptochloa chinensis), read-out: Visual Growth Reduction (%) 21 Days After Application LEFCH
[9] = ORYSJ (Oryza sativa, rice crop), read-out: Visual Growth Reduction (%) 21 Days After Application ORYSJ
[10] = ORYSK (Oryza sativa, rice crop), read-out: Visual Growth Reduction (%) 21 Days After Application ORYSK
[11] = SCPJU (Japanese bulrush, Schoenoplectus juncoides Roxb.), read-out: Visual Growth Reduction (%) 21 Days After Application SCPJU
[12] = SEBEX (hemp sesbania, Sesbania exaltata), read-out: Visual Growth Reduction (%) 21 Days After Application SEBEX

Compound: COc1c(N)nc(-c2ccc3c(c2F)OC(F)(F)O3)nc1C(=O)O [Compound 66]
- GR50 BRAPP (BRAPP (Brachiaria platyphylla), probit analysis, dose for 50 percent growth reduction): 2 g ai/ha
- GR80 BRAPP (BRAPP (Brachiaria platyphylla), probit analysis, dose for 80 percent growth reduction): 7 g ai/ha
- GR90 BRAPP (BRAPP (Brachiaria platyphylla), probit analysis, dose for 90 percent growth reduction): 16 g ai/ha
- GR50 CYPDI (CYPDI (Cyperus difformis), probit analysis, dose for 50 percent growth reduction): 0.42 g ai/ha
- GR80 CYPDI (CYPDI (Cyperus difformis), probit analysis, dose for 80 percent growth reduction): 3 g ai/ha
- GR90 CYPDI (CYPDI (Cyperus difformis), probit analysis, dose for 90 percent growth reduction): 6 g ai/ha
- GR50 CYPES (CYPES (Cyperus esculentus), probit analysis, dose for 50 percent growth reduction): 0.0001 g ai/ha
- GR80 CYPES (CYPES (Cyperus esculentus), probit analysis, dose for 80 percent growth reduction): 0.0001 g ai/ha
- GR90 CYPES (CYPES (Cyperus esculentus), probit analysis, dose for 90 percent growth reduction): 0.0001 g ai/ha
- GR50 CYPIR (CYPIR (Cyperus iria), probit analysis, dose for 50 percent growth reduction): 9 g ai/ha
- GR80 CYPIR (CYPIR (Cyperus iria), probit analysis, dose for 80 percent growth reduction): 15 g ai/ha
- GR90 CYPIR (CYPIR (Cyperus iria), probit analysis, dose for 90 percent growth reduction): 19 g ai/ha
- GR50 DIGSA (DIGSA (Digitaria sanguinalis), probit analysis, dose for 50 percent growth reduction): 2 g ai/ha
- GR80 DIGSA (DIGSA (Digitaria sanguinalis), probit analysis, dose for 80 percent growth reduction): 21 g ai/ha
- GR90 DIGSA (DIGSA (Digitaria sanguinalis), probit analysis, dose for 90 percent growth reduction): 77 g ai/ha
- GR50 ECHCG (ECHCG (Echinochloa crus-galli), probit analysis, dose for 50 percent growth reduction): 3 g ai/ha
- GR80 ECHCG (ECHCG (Echinochloa crus-galli), probit analysis, dose for 80 percent growth reduction): 7 g ai/ha
- GR90 ECHCG (ECHCG (Echinochloa crus-galli), probit analysis, dose for 90 percent growth reduction): 12 g ai/ha
- GR50 ECHCO (ECHCO (Echinochloa colonum), probit analysis, dose for 50 percent growth reduction): 2 g ai/ha
- GR80 ECHCO (ECHCO (Echinochloa colonum), probit analysis, dose for 80 percent growth reduction): 6 g ai/ha
- GR90 ECHCO (ECHCO (Echinochloa colonum), probit analysis, dose for 90 percent growth reduction): 11 g ai/ha
- GR50 LEFCH (LEFCH (Leptochloa chinensis), probit analysis, dose for 50 percent growth reduction): 105 g ai/ha
- GR80 LEFCH (LEFCH (Leptochloa chinensis), probit analysis, dose for 80 percent growth reduction): 227 g ai/ha
- GR90 LEFCH (LEFCH (Leptochloa chinensis), probit analysis, dose for 90 percent growth reduction): 339 g ai/ha
- GR20 ORYSJ (ORYSJ (Oryza sativa, rice crop), probit analysis, dose for 20 percent growth reduction): 2 g ai/ha
- GR20 ORYSK (ORYSK (Oryza sativa, rice crop), probit analysis, dose for 20 percent growth reduction): 11 g ai/ha
- GR50 SCPJU (SCPJU (Schoenoplectus juncoides Roxb.), probit analysis, dose for 50 percent growth reduction): 0.0001 g ai/ha
- GR80 SCPJU (SCPJU (Schoenoplectus juncoides Roxb.), probit analysis, dose for 80 percent growth reduction): 0.0001 g ai/ha
- GR90 SCPJU (SCPJU (Schoenoplectus juncoides Roxb.), probit analysis, dose for 90 percent growth reduction): 0.0001 g ai/ha
- GR50 SEBEX (SEBEX (Sesbania exaltata), probit analysis, dose for 50 percent growth reduction): 8 g ai/ha
- GR80 SEBEX (SEBEX (Sesbania exaltata), probit analysis, dose for 80 percent growth reduction): 19 g ai/ha
- GR90 SEBEX (SEBEX (Sesbania exaltata), probit analysis, dose for 90 percent growth reduction): 28 g ai/ha
- pest or weed control at 17.5 g/ha [1]: 85 to 94%
- pest or weed control at 35 g/ha [1]: 95 to 100%
- pest or weed control at 70 g/ha [1]: 95 to 100%
- pest or weed control at 17.5 g/ha [2]: 95 to 100%
- pest or weed control at 35 g/ha [2]: 95 to 100%
- pest or weed control at 70 g/ha [2]: 95 to 100%
- pest or weed control at 17.5 g/ha [3]: 95 to 100%
- pest or weed control at 35 g/ha [3]: 95 to 100%
- pest or weed control at 70 g/ha [3]: 95 to 100%
- pest or weed control at 17.5 g/ha [4]: 95 to 100%
- pest or weed control at 35 g/ha [4]: 95 to 100%
- pest or weed control at 70 g/ha [4]: 95 to 100%
- pest or weed control at 17.5 g/ha [5]: 75 to 84%
- pest or weed control at 35 g/ha [5]: 85 to 94%
- pest or weed control at 70 g/ha [5]: 85 to 94%
- pest or weed control at 17.5 g/ha [6]: 95 to 100%
- pest or weed control at 35 g/ha [6]: 95 to 100%
- pest or weed control at 70 g/ha [6]: 95 to 100%
- pest or weed control at 17.5 g/ha [7]: 95 to 100%
- pest or weed control at 35 g/ha [7]: 95 to 100%
- pest or weed control at 70 g/ha [7]: 95 to 100%
- pest or weed control at 17.5 g/ha [8]: 0 to 29%
- pest or weed control at 35 g/ha [8]: 0 to 29%
- pest or weed control at 70 g/ha [8]: 30 to 44%
- pest or weed control at 17.5 g/ha [9]: 60 to 74%
- pest or weed control at 35 g/ha [9]: 85 to 94%
- pest or weed control at 70 g/ha [9]: 85 to 94%
- pest or weed control at 17.5 g/ha [10]: 30 to 44%
- pest or weed control at 35 g/ha [10]: 60 to 74%
- pest or weed control at 70 g/ha [10]: 85 to 94%
- pest or weed control at 17.5 g/ha [11]: 95 to 100%
- pest or weed control at 35 g/ha [11]: 95 to 100%
- pest or weed control at 70 g/ha [11]: 95 to 100%
- pest or weed control at 17.5 g/ha [12]: 60 to 74%
- pest or weed control at 35 g/ha [12]: 95 to 100%
- pest or weed control at 70 g/ha [12]: 95 to 100%
